Laboratory results taken from patent US11253610B2, “Plant virus particles for delivery of antimitotic agents” (CASE WESTERN RESERVE UNIVERSITY, priority 2015, dated 2022).
Numbered stars: 1 amine (or outer) side, 2 acyl side, 3 side chain; on linkers, the order of the positions; unused ones are H or OH. Square brackets hold non-standard residues; d marks the D form. Peptide text beside a SMILES is read from it. * marks the point of attachment. Dolaproine = CO[C@@H]([C@@H]1CCCN1)[C@@H](C)C(=O)O; Hexanoyl(6-maleimido) = O=C1C=CC(=O)N1CCCCCC(=O)*; Dil = CC[C@H](C)[C@H](NC)[C@@H](CC(=O)O)OC; PABC = O=C(OCc1ccc(N[*:1])cc1)[*:2]; X1 = C[C@@H](N*)[C@@H](O)c1ccccc1; Cit = NC(=O)NCCC[C@H](N)C(=O)O; NMeV = CN[C@H](C(=O)O)C(C)C

Key:
[1] = test system: Karpas 299 cells; assay: Cell viability assay (Alamar Blue); format: cell-based, human; settings: 72 hours incubation, read-out: IC50 (drug concentration where half of the cells are killed)
Procedure: Cell culture. Karpas 299 cells (ATCC) were maintained in RPMI-1640 at 37° C. in a 5% CO2 humidified atmosphere. The medium was supplemented with 20% (v/v) heat-inactivated fetal bovine serum (FBS), and 1% (v/v) penicillin-streptomycin. All reagents were obtained from Gibco.
Cell viability assay. Cells at a concentration of 10,000 cells/mL were seeded in a sterile, tissue culture-treated, 96-well clear bottom plate for 24 hours at 37° C. in a 5% CO2 humidified atmosphere. Cells were then incubated with fresh media with 0.02 nM to 200 nM VcMMAE for 72 hours. At 92 hours, Alamar Blue (ThermoFisher) was added, and cell viability was measured at 96 hours according to the manufacturer's instructions using a fluorescence plate reader with […].
To evaluate the efficacy of TMV-vcMMAE, cell viability assays were performed using Alamar Blue assay Alamar Blue reagent is primarily made of resazurin, a nontoxic cell permeable non-fluorescent blue molecule. […]
Karpas 299 cells were seeded for 24 hours and then incubated with free vcMMAE or TMV-MMAE for 72 hours. At 92 hours, Alamar Blue was added and the cells fluorescence was measured after 4 hours of incubation at 540 nm excitation and 610 nm emission. The results for both free vcMMAE and TMV-MMAE are plotted in FIG. 4, and the IC50 values were calculated. […]

[2] = vary with assay set up, time course and cell lines used; read-out: IC50 values in the literature; cited from earlier work

## CC[C@H](C)[C@@H]([C@@H](CC(=O)N1CCC[C@H]1[C@H](OC)[C@@H](C)C(=O)N[C@H](C)[C@@H](O)c1ccccc1)OC)N(C)C(=O)[C@@H](NC(=O)[C@H](C(C)C)N(C)C(=O)OCc1ccc(NC(=O)[C@H](CCCNC(N)=O)NC(=O)[C@@H](NC(=O)CCCCCN2C(=O)C=CC2=O)C(C)C)cc1)C(C)C [vcMMAE, valine-citrulline monomethyl auristatin E] ({Hexanoyl(6-maleimido)}-V[Cit][PABC][NMeV]V[Dil][Dolaproine]-X1)
[1]
  IC50: ~25.8 nM
[2]
  IC50: ~5 nM
